No end group written: not given here.
Legend:
[1] = tested on: IFN-γ response; assay: IFN-γ ELISPOT of PD-1 and PD-L1 peptides in naïve mice; format: in vivo, mouse
Protocol: The immunogenicity of PD-1 and PD-L1 were tested in naïve mice using the IFN-γ ELISPOT assay. (P<0.0001, data not shown)
Cancer cells are naturally attacked by cells of the immune system, but can induce a state of tolerance whereby they escape from immune attack, for which immune checkpoint proteins such as PD1, VISTA are important ones mediating this immune escape. Interaction of PD-1 on activated T cells and PD-L1 on cancer cells lead to inhibition of the cytotoxic T cells. Investigators have recently identified spontaneous T cell reactivity against PD-L1 in the tumor microenvironment and in the peripheral blood of patients with metastatic melanoma and healthy donors, PD-L1 reactive CD8 T cells are cytotoxic and can kill cancer cells and immune regulatory cells in vitro, and responsive PD-L1 peptide vaccine has therefore under development. Here, by using a multi-scoring system that combines multiple MHC class II peptide binding algorithms, we identified immunogenic “hotspots”, and selected 7 peptides for PD-L1 and 11 peptides for PD-1 from these immunogenic “hot” regions (see Table 3). We then tested their immunogenicity in naïve mice using the IFN-γ ELISPOT assay.

[2] = Immune response to KRAS peptides (Table 1)
[3] = tested on: IFN-γ-secreting splenocytes; assay: IFN-γ ELISPOT screen of single KRAS peptides in naïve mice; format: in vivo, mouse; conditions: for mean IFN-γ-secreting cells / IFN-γ response (ELISPOT): splenocytes pulsed 72 h; for IFN-γ response (ELISPOT): naïve mice vaccinated with single KRAS peptide
Excerpt: FIG. 1A-1C. In vivo screen for peptide candidates by ELISPOT in naïve mice. (A) Immunogenic heatmap for identifying peptides associated with highest binding affinity across multiple MHC class II alleles. Colors represent percentile to highest score from three algorithms for each amino acid from dark red to light blue in the order of rank scores. Color strata are as follows: dark red ≥75% of the highest score; red=50˜75% of the highest score; orange=40˜50% of highest score; yellow=30˜40% of the highest score; green=20˜30% of the highest score; blue ≤20% of the highest score. (B) Representative ELISPOT results showing T cell responses to specific KRAS peptides from mouse splenocytes stimulated with no antigen (first row), negative control peptide (HIV peptide, second row), target peptide (third row), or positive control ConA (fourth row). (C) Quantified ELISPOT results. Then, splenocytes were collected and pulsed with no antigen control, each single KRAS peptide, or negative control peptide (HIV peptide), or positive control ConA. After 72 h of incubation, the ELISPOT assay was performed, plates were scanned, and spot numbers were statistically analyzed. Open bar, ELISPOT reads from KRAS peptide vaccinated animals pulsed with specific KRAS peptide; blue bar, ELISPOT reads from animals injected only with adjuvant and pulsed with specific KRAS peptide; black bar, ELISPOT reads from three most significant KRAS peptide vaccinated animals. Data are shown as the mean±SE of three replicate wells per group, n=5.
Mice were vaccinated with 50 μg of each peptide. Phosphate buffered saline (PBS) was added to bring the total volume to 50 μL/mouse. An equal amount of adjuvant (Complete Freund's Adjuvant or Incomplete Freund's Adjuvant) was added to bring the total volume to 100 μL/mouse. Mice were injected subcutaneously on the shoulder at 7 weeks of age, and boosting vaccination was given every two weeks for the first three boosting and every 4 weeks for the last three boosting as shown in FIG. 2A. Transgene Kras was initiated with Dox diet (625 mg/kg diet) one week after the fourth vaccination, and Dox diet was given throughout of the study.
(§1) Cell suspensions from whole spleens were filtered through a 70 μm cell strainer (BD) and subjected to red blood cell lysis using ACK lysis buffer. 1.5˜3.0×10^4 cells were plated into individual wells of a MAIPS4510 Multiscreen 96 well plate previously coated with anti-interferon γ […] antibody and containing media with either peptide, positive control (concanavalin A) or negative control (HIV peptide, or no antigen). After 72 hours, plates were washed and a secondary antibody (BD) was added and incubated on the plate overnight at 4 degrees Celsius. Wells were then washed with PBS and HRP streptavidin was added. Following 1 h incubation, the plate was developed using AEC substrate for between 5-25 minutes. The plate was subsequently gently washed under cold running tap water. When dry, an automated plate reader system (CTL Technologies) was used to image the plates and quantify spot number.
Using a multi-scoring system that combines multiple MHC class II peptide binding algorithms, immunogenic “hotspots” were identified; 11 peptides (Table 2) were selected; their immunogenicity was evaluated in naïve mice using the IFN-γ ELISPOT assay as previously reported. The KRAS 17-mer peptide (p5-21) that covers the mutation in codon 12, and its G12D mutant (p5-21 G12D) were also selected as robust peptides to stimulate immune response. […] To include peptides against both wild-type and mutant KRAS, also based on a high degree of homology between human and mouse KRAS, peptides p5-21 (SEQ ID NO:2), p5-21 G12D (SEQ ID NO:1), p17-31 (SEQ ID NO:4), and p78-92 (SEQ ID NO:6) were chosen to formulate a multipeptide KRAS vaccine in the preventive efficacy study.

[4] = tested on: IFN-γ-secreting splenocytes; assay: IFN-γ ELISPOT of splenocytes from vaccinated CCSP-KRAS^G12D mice at end of study (epitope spreading); format: in vivo, mouse; conditions: for mean IFN-γ-secreting cell responses: splenocytes of mice vaccinated with KRAS combination vaccine, pulsed with the named peptide(s) 72 h
Protocol: FIG. 3. Epitope spreading tested by IFN-γ ELISPOT. Mice were vaccinated with the KRAS combination vaccine (p5-21, p5-21 G12D, p17-31, and p78-92). Then splenocytes were collected and pulsed with KRAS combo peptides, each single KRAS peptide, unvaccinated KRAS peptide p75-89, combo IGFR peptides, or Tert peptide. After 72 h of incubation, the ELISPOT assay was performed, plates were scanned, and spot numbers were statistically analyzed.
as §1
In order to examine the specific immunity that confers the protective effect of the KRAS vaccine, an IFN-γELISPOT assay of splenocytes isolated from adjuvant alone and vaccinated CCSP-KRAS^G12D mice was performed at the end of the study. […] The mean IFN-γ-secreting cell responses were 216 in the pooled KRAS peptides group, and 36, 40, 116, and 52 to individual peptides p5-21, p5-21 G12D, p17-31, and p78-92, respectively. […] There was no evidence of general immune hyperactivity stimulation as none of the animals responded to an irrelevant naïve antigen, further supporting the notion that the immune response detected in the vaccinated group was highly specific to the KRAS vaccine.

[5] = tested on: K-ras-driven lung cancer syngraft; assay: K-ras-driven lung cancer syngraft tumor model (avasimibe combination); format: in vivo, mouse; conditions: tumor volume over time
Protocol: FIG. 10. K-ras vaccine synergize with Avasamibe to inhibit lung tumor progression in K-ras-driven lung cancer syngraft tumor model.
Mice were treated with the combination of K-ras multi-peptide vaccine with avasimibe in a K-ras-driven lung cancer syngraft model. Tumor volume was assessed over time post tumor cell inoculation.
Therefore, we tested the combination of K-ras multi-peptide vaccine with avasimibe in a K-ras-driven lung cancer syngraft model.

[6] = tested on: tumor infiltrated CD8+ cells and Tregs; assay: T cells in spleen or tumor of K-rasLA1 mice; format: in vivo, mouse; conditions: 4~5 weeks after treatment
Protocol: FIG. 8. UAB30 increased tumor infiltrated CD8+ cells and decreased Tregs in tumor. K-rasLA1 mice were treated with control, Kras-vaccine, UAB30 alone or Kras-vaccine and UAB30 and the % CD4+ or CD8+ T cells were assessed in the spleen or tumor of mice at 4˜5 weeks after treatment.
K-rasLA1 mouse develops premalignant lung lesions that progress to multifocal lung adenocarcinomas due to somatic mutations in K-ras, which occurs at the birth of these mice through DNA recombination. […] In this model, vaccination was given when mice were 8˜10 weeks old, at which numerous pleural lesions already formed in lung, yet K-ras vaccination alone significant inhibited lung tumor multiplicity and load in K-rasLA1 mice, decreased tumor numbers from ˜12 to ˜7 per mouse, and tumor load from ˜55 mm3 to ˜30 mm3 (FIG. 7).

For LAVFCSTSMSEARGA [mPD1-193], the “IFN-γ response, peptides for PD-1” value [1] was “strongest IFN-γ response”.

For AGGVGKSALTIQLLQNHFVDEYD [p11], the Immune response [2] was “Yes”.

For KLVVVGAGGVGKSAL [p5-19], the “response relative to p5-21” value ([3]; IFN-γ ELISPOT, naïve mice) was “less than 50%”.

With KLVVVGADGVGKSALTI [p5-21 G12D] the Immune response [2] was “Yes”, the “mean IFN-γ-secreting cell responses” value [4] was 40 and the “mean IFN-γ-secreting cells” value ([3]; naïve mice) was “around 100 spots per well (SPW)”.

In the case of CHLLRAFTITAPKDL [mPDL1-13], the “IFN-γ response, peptides against PD-L1” value [1] was “strongest IFN-γ response”.

In the case of AGGVGKSALTIQLLQNHFVDE [p11s], the Immune response [2] was “Yes”.

In the case of FLCVFAINNTKSFED [p78-92], the Immune response [2] was “Yes”, the “mean IFN-γ-secreting cell responses” value [4] was 52 and the “IFN-γ response (ELISPOT)” value [3] was “strongest IFN-γ response”.

In the case of KLVVVGAGGVGKSALTI [p5-21], the Immune response [2] was “Yes”, the “mean IFN-γ-secreting cell responses” value [4] was 36 and the “IFN-γ response (ELISPOT)” value [3] was “strongest IFN-γ response”. For the same molecule, the “mean IFN-γ-secreting cells” value ([3]; naïve mice) was “around 100 spots per well (SPW)”.

In the case of `CC(C)c1cc(C(C)C)c(CC(=O)NS(=O)(=O)Oc2c(C(C)C)cccc2C(C)C)c(C(C)C)c1` [avasimibe], the tumor growth inhibition [5] was “effective in inhibiting tumor growth”.

With “TgegFLCVFAINNTKSFED (TGEGFLCVFAINNTKSFED) [P75]” the Immune response [2] was “Yes”.

For LPATHPPQNRTHWVL [mPDL1228], the “IFN-γ response, peptides against PD-L1” value [1] was “strongest IFN-γ response” and the “IFN-γ response, peptides for PD-1” value [1] was “strongest IFN-γ response”.

With KLVVVGAVGVGKSALTI [P5-21G12V] the Immune response [2] was “Yes”.

With QDARFQIIQLPNRHD [mPD1-94] the “IFN-γ response, peptides for PD-1” value [1] was “strongest IFN-γ response”.

In the case of GEGFLCVFAINNTKS [p75-89], the “IFN-γ response to non-vaccine KRAS peptide” value ([4]; splenocytes of vaccinated animals) was “strong response” and the “IFN-γ response (ELISPOT)” value [3] was “much weaker response”.

With `CC(=C/C=C/C(C)=C/C(=O)O)/C=C1\CCCc2ccccc21` [UAB30] the Tregs in tumors [6] was “decreased” and the “infiltrated CD8+ cells in tumors” value [6] was “significantly increased”.

In the case of SWQSGWLLEVPNGPW [mPD1-21], the “IFN-γ response, peptides for PD-1” value [1] was “strongest IFN-γ response”.

In the case of VGAGGVGKSALTIQLLQNHFVDEYD [p9], the Immune response [2] was “Yes”.

In the case of FYTLVREIRKHKEKM [p156-170], the Immune response [2] was “Yes” and the “IFN-γ response (ELISPOT)” value [3] was “strongest IFN-γ response”.

For SALTIQLIQNHFVDE [p17-31], the Immune response [2] was “Yes”, the “mean IFN-γ-secreting cell responses” value [4] was 116 and the “IFN-γ response (ELISPOT)” value [3] was “strongest IFN-γ response”.

In the case of PQHSNFRGRASLPKD [mPDL1-76], the “IFN-γ response, peptides against PD-L1” value [1] was “strongest IFN-γ response”.

With “kSALTIQLIQNHFVDEyd (KSALTIQLIQNHFVDEYD; not fully specified (residues 1, 17, 18); printed as kSALTIQLIQNHFVDEyd) [P16]” the Immune response [2] was “Yes”.

For DAFYTLVREIRKHKE [p154-168], the “IFN-γ response (ELISPOT)” value [3] was “much weaker response”.
